Literature values, collected in patent US20060264381A1, “Methods of treating obsessive compulsive disorder” (priority 2005, published 2006).

Experiments:
mGluR5 = target: T1, mGluR5 (Mus musculus, UniProt Q3UVX5); settings: slices from the Fmr1 KO mouse
T1 construct: from tissue; host or cells: brain slices from Fmr1 knockout mouse (hippocampal area CA3 by context)

[1] = test system: Drosophila mGluR, DmGluRA; settings: flies lacking dfmr1 raised with food containing drug
[2] = test system: Gp1 mGluR5 on cultured hippocampal neurons
[3] = test system: cultured cortical neurons; settings: cultures prepared from Fmr1 knockout (KO) mice lacking FMRP
[4] = test system: synaptosomes prepared from the cortex of Fmr1 KO mice

T1 sequence (Q3UVX5 19-1203): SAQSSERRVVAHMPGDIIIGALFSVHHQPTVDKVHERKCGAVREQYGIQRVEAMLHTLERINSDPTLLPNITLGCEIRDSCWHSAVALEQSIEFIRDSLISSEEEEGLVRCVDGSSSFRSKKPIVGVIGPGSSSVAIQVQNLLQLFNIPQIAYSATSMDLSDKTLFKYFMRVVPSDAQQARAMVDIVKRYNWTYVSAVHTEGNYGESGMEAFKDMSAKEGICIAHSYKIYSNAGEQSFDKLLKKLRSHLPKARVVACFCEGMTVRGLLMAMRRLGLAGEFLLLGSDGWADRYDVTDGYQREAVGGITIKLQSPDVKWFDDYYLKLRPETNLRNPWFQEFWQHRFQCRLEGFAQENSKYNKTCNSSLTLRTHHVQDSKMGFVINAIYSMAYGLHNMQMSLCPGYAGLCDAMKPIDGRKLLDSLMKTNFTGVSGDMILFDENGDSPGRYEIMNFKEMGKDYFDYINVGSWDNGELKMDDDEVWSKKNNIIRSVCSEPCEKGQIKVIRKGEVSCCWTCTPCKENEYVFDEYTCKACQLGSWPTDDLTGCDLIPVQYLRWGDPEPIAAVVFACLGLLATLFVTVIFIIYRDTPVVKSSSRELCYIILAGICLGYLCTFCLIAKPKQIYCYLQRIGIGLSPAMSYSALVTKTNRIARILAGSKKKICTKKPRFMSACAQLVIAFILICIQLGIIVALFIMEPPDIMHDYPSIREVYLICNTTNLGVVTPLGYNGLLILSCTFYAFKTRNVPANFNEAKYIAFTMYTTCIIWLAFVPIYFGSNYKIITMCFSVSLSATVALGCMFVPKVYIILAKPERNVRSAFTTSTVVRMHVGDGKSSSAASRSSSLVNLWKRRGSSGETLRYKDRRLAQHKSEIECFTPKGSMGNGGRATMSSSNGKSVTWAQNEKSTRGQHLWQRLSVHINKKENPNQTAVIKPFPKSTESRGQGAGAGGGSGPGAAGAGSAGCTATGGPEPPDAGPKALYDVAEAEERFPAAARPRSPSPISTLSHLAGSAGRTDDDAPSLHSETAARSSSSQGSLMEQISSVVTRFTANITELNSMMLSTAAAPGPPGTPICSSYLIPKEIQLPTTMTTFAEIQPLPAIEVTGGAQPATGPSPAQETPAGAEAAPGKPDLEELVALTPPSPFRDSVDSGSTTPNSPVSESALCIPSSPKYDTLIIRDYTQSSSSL

ictal-like activity emerging spontaneously in slices (mGluR5) | SMILES | rescue of phenotypes in mutant flies (altered courtship behavior, decreased memory in conditioned courtship assay, mushroom body structure) [1] | delivery of FMRP to dendrites ([2]; cultured hippocampal neurons) | loss of AMPA receptors from synapses ([2]; cultured hippocampal neurons) | proportion of long, thin dendritic spines ([2]; prolonged treatment of hippocampal neurons) | PSD-95 levels [3] | polyribosome assembly [4]
reversed | Cc1cccc(C#Cc2ccccc2)n1 [MPEP, 2-methyl-6-(phenylethynyl)-pyridine] | rescued |  |  |  |  | 
 | N[C@@H](C(=O)O)c1cc(O)cc(O)c1 (racemic) [DHPG, (R,S)-3,5-dihydroxyphenylglycine] |  | triggers the delivery of FMRP to dendrites | stimulates the loss of AMPA receptors from synapses | increased the proportion of long, thin dendritic spines | fails to increase PSD-95 levels | fails to stimulate polyribosome assembly
